We go through one compound from ChEMBL document CHEMBL6109117, “Synthesis of an RBM39 Degrader That Downregulates CEP192 and Induces Disorganized Spindle Structures” (J Med Chem, 2025).

Each structure is given as a SMILES string.

The assay concerns CEM/C1. Put plainly: Effect on RNA splicing in human CEM/C1 cells assessed as CEP192 gene retention of introns incubated for 12 hrs by PCR analysis. The class given is functional, cell-based. The following applies: dose 0.1-10 µM.

For the compound `Cc1ccc(NS(=O)(=O)c2cccc(NC(=O)C(=O)N3CCC[C@@H]3CO)c2)c2[nH]cc(C#N)c12`, the Activity entry was “Dose-dependent-effect; Observed Retention Of Introns Between Exons 27 And 28”.
